{"source": "patent US9221746B2", "about": "“Homo- and hetero-polyamino-acid derivatives of fullerene C60, method for producing same, and pharmaceutical compositions based on said derivatives” (priority 2011, dated 2015)", "tested_on": "A/IIV-Moscow/01/2009 (H1N1)swl influenza virus", "test": "Reduction of influenza virus reproduction in MDCK cell culture (ELISA)", "format": "cell-based", "details": "for Percent reduction of influenza virus reproduction in MDCK cell culture relative to control, average values: average of the three experiments", "procedure": "The agent was diluted with DMSO (5 mg substance+0.5 mL DMSO), followed by addition of 4.5 mL MEM cell cultural medium to obtain in this way a stock solution with a concentration of 1.0 […].\nThe antiviral activity was ascertained from the reduction of influenza virus reproduction in the MDCK cell culture, as recognized by ELISA.\nFor this purpose, MDCK cells were grown on 96-well plates to obtain a complete monolayer, washed from the growth medium, and added with substances in a twofold concentration in 100 mcL MEM medium. Infection with the virus in a working dose ranging from 100 to 1000 TCD50 was carried out in two protocols: 2 hours following the insertion of the substances and simultaneously. The plates were incubated in a thermostat filled with CO2 for 24 hours at 37° C. Following the incubation, the medium was removed and cells were fixed by 80% acetone in PBS for 15 minutes and then well dried, and ELISA was performed by consecutive adsorption of specific reagents, namely, monoclonal antibodies, conjugate, and substrate (orthophenylenediamine). The degree of reaction was monitored by measuring optical density at 492 nm on a Biokom spectrophotometer. Each virus dilution was studied in three replicas, for which an average optical density (OD) value was calculated. Percent inhibition was determined as the quotient of the difference between the experimental OD and the OD of the cell control, divided by the difference between the OD of the virus control and the OD of the cell control, multiplied by 100%. The data gained in this way were used to determine the minimal concentration of the agent causing the 50.0% inhibition of viral reproduction (MIC50).\nThe inhibition of A(H1N1) influenza virus replication was ascertained in three experiments with different multiplicities of infection."}
{"substance": "Fullerene Poly(Aminocaproic Acid) of Formula C60(H3){NH(CH2)5COO—}3{NH3^+(CH2)5COOH}3 [Agent No. 1]", "values": [{"measurement": "Percent (%) reduction of influenza virus reproduction in MDCK cell culture relative to control", "setting": "6.25 mcg/mL, 2 h prior to infection, 1st value of cell (experiments with different multiplicities of infection)", "value": 27.0, "unit": "%"}, {"measurement": "Percent (%) reduction of influenza virus reproduction in MDCK cell culture relative to control", "setting": "6.25 mcg/mL, 2 h prior to infection, 2nd value of cell", "value": 28.0, "unit": "%"}, {"measurement": "Percent (%) reduction of influenza virus reproduction in MDCK cell culture relative to control", "setting": "6.25 mcg/mL, 2 h prior to infection, 3rd value of cell", "value": 0, "unit": "%"}, {"measurement": "Percent reduction of influenza virus reproduction in MDCK cell culture relative to control, average values", "setting": "6.25 mcg/mL, 2 h prior to infection", "value": 18.0, "unit": "%"}, {"measurement": "Percent (%) reduction of influenza virus reproduction in MDCK cell culture relative to control", "setting": "6.25 mcg/mL, simultaneously with infection, 1st value of cell", "value": 18.0, "unit": "%"}, {"measurement": "Percent (%) reduction of influenza virus reproduction in MDCK cell culture relative to control", "setting": "6.25 mcg/mL, simultaneously with infection, 2nd value of cell", "value": 0, "unit": "%"}, {"measurement": "Percent (%) reduction of influenza virus reproduction in MDCK cell culture relative to control", "setting": "6.25 mcg/mL, simultaneously with infection, 3rd value of cell", "value": 0, "unit": "%"}, {"measurement": "Percent reduction of influenza virus reproduction in MDCK cell culture relative to control, average values", "setting": "6.25 mcg/mL, simultaneously with infection", "value": 6.0, "unit": "%"}, {"measurement": "Percent (%) reduction of influenza virus reproduction in MDCK cell culture relative to control", "setting": "12.5 mcg/mL, 2 h prior to infection, 1st value of cell", "value": 47.0, "unit": "%"}, {"measurement": "Percent (%) reduction of influenza virus reproduction in MDCK cell culture relative to control", "setting": "12.5 mcg/mL, 2 h prior to infection, 2nd value of cell", "value": 74.0, "unit": "%"}, {"measurement": "Percent (%) reduction of influenza virus reproduction in MDCK cell culture relative to control", "setting": "12.5 mcg/mL, 2 h prior to infection, 3rd value of cell", "value": 9.5, "unit": "%"}, {"measurement": "Percent reduction of influenza virus reproduction in MDCK cell culture relative to control, average values", "setting": "12.5 mcg/mL, 2 h prior to infection", "value": 44.0, "unit": "%"}, {"measurement": "Percent (%) reduction of influenza virus reproduction in MDCK cell culture relative to control", "setting": "12.5 mcg/mL, simultaneously with infection, 1st value of cell", "value": 39.0, "unit": "%"}, {"measurement": "Percent (%) reduction of influenza virus reproduction in MDCK cell culture relative to control", "setting": "12.5 mcg/mL, simultaneously with infection, 2nd value of cell", "value": 13.0, "unit": "%"}, {"measurement": "Percent (%) reduction of influenza virus reproduction in MDCK cell culture relative to control", "setting": "12.5 mcg/mL, simultaneously with infection, 3rd value of cell", "value": 0, "unit": "%"}, {"measurement": "Percent reduction of influenza virus reproduction in MDCK cell culture relative to control, average values", "setting": "12.5 mcg/mL, simultaneously with infection", "value": 26, "unit": "%"}, {"measurement": "Percent (%) reduction of influenza virus reproduction in MDCK cell culture relative to control", "setting": "25.0 mcg/mL, 2 h prior to infection, 1st value of cell", "value": 41.0, "unit": "%"}, {"measurement": "Percent (%) reduction of influenza virus reproduction in MDCK cell culture relative to control", "setting": "25.0 mcg/mL, 2 h prior to infection, 2nd value of cell", "value": 79.0, "unit": "%"}, {"measurement": "Percent (%) reduction of influenza virus reproduction in MDCK cell culture relative to control", "setting": "25.0 mcg/mL, 2 h prior to infection, 3rd value of cell", "value": 12, "unit": "%"}, {"measurement": "Percent reduction of influenza virus reproduction in MDCK cell culture relative to control, average values", "setting": "25.0 mcg/mL, 2 h prior to infection", "value": 44.0, "unit": "%"}, {"measurement": "Percent (%) reduction of influenza virus reproduction in MDCK cell culture relative to control", "setting": "25.0 mcg/mL, simultaneously with infection, 1st value of cell", "value": 40.0, "unit": "%"}, {"measurement": "Percent (%) reduction of influenza virus reproduction in MDCK cell culture relative to control", "setting": "25.0 mcg/mL, simultaneously with infection, 2nd value of cell", "value": 0, "unit": "%"}, {"measurement": "Percent reduction of influenza virus reproduction in MDCK cell culture relative to control, average values", "setting": "25.0 mcg/mL, simultaneously with infection", "value": 20.0, "unit": "%"}, {"measurement": "Percent (%) reduction of influenza virus reproduction in MDCK cell culture relative to control", "setting": "50.0 mcg/mL, 2 h prior to infection, 1st value of cell", "value": 28.0, "unit": "%"}, {"measurement": "Percent (%) reduction of influenza virus reproduction in MDCK cell culture relative to control", "setting": "50.0 mcg/mL, 2 h prior to infection, 2nd value of cell", "value": 72.0, "unit": "%"}, {"measurement": "Percent (%) reduction of influenza virus reproduction in MDCK cell culture relative to control", "setting": "50.0 mcg/mL, 2 h prior to infection, 3rd value of cell", "value": 31.0, "unit": "%"}, {"measurement": "Percent reduction of influenza virus reproduction in MDCK cell culture relative to control, average values", "setting": "50.0 mcg/mL, 2 h prior to infection", "value": 44.0, "unit": "%"}, {"measurement": "Percent (%) reduction of influenza virus reproduction in MDCK cell culture relative to control", "setting": "50.0 mcg/mL, simultaneously with infection, 1st value of cell", "value": 33.0, "unit": "%"}, {"measurement": "Percent (%) reduction of influenza virus reproduction in MDCK cell culture relative to control", "setting": "50.0 mcg/mL, simultaneously with infection, 2nd value of cell", "value": 10.0, "unit": "%"}, {"measurement": "Percent reduction of influenza virus reproduction in MDCK cell culture relative to control, average values", "setting": "50.0 mcg/mL, simultaneously with infection", "value": 22.0, "unit": "%"}, {"measurement": "Percent (%) reduction of influenza virus reproduction in MDCK cell culture relative to control", "setting": "100.0 mcg/mL, 2 h prior to infection, 1st value of cell", "value": 4.0, "unit": "%"}, {"measurement": "Percent (%) reduction of influenza virus reproduction in MDCK cell culture relative to control", "setting": "100.0 mcg/mL, 2 h prior to infection, 2nd value of cell", "value": 0, "unit": "%"}, {"measurement": "Percent (%) reduction of influenza virus reproduction in MDCK cell culture relative to control", "setting": "100.0 mcg/mL, 2 h prior to infection, 3rd value of cell", "value": 20.0, "unit": "%"}, {"measurement": "Percent reduction of influenza virus reproduction in MDCK cell culture relative to control, average values", "setting": "100.0 mcg/mL, 2 h prior to infection", "value": 8, "unit": "%"}, {"measurement": "Percent (%) reduction of influenza virus reproduction in MDCK cell culture relative to control", "setting": "100.0 mcg/mL, simultaneously with infection, 1st value of cell", "value": 29.0, "unit": "%"}, {"measurement": "Percent (%) reduction of influenza virus reproduction in MDCK cell culture relative to control", "setting": "100.0 mcg/mL, simultaneously with infection, 2nd value of cell", "value": 28.0, "unit": "%"}, {"measurement": "Percent reduction of influenza virus reproduction in MDCK cell culture relative to control, average values", "setting": "100.0 mcg/mL, simultaneously with infection", "value": 29.0, "unit": "%"}, {"measurement": "reproduction inhibitory activity in the MDCK cell culture", "setting": "different dilutions of the agent", "value": "high reproduction inhibitory activity"}]}
